# Reference: ChEMBL document CHEMBL1127612, “Maleimidoethyl 3-(tri-n-butylstannyl)hippurate: a useful radioiodination reagent for protein radiopharmaceuticals to enhance target selective radioactivity localization” (J Med Chem, 1994)
# How the values were obtained:
# [1] = test system: Mus musculus; assay: Tested for biodistribution of radioactivity after 5 min of intravenous injection in mice stomach; type: ADME, organism-based; details: in vivo
# [2] = test system: Mus musculus; assay: Tested for biodistribution of radioactivity after 5 min of intravenous injection in mice intestines; type: ADME, organism-based, Intestine; details: in vivo
# [3] = test system: Mus musculus; assay: Tested for biodistribution of radioactivity after 1 hr of intravenous injection in mice stomach; type: ADME, organism-based; details: in vivo
# [4] = test system: Mus musculus; assay: Tested for biodistribution of radioactivity after 30 min of intravenous injection in mice neck; type: ADME, organism-based; details: in vivo, 0.5 h
# [5] = test system: Mus musculus; assay: Tested for biodistribution of radioactivity after 6 hr of intravenous injection in mice urine; type: ADME, organism-based; details: in vivo
# [6] = test system: Mus musculus; assay: Tested for biodistribution of radioactivity after 3h of intravenous injection in mice kidneys; type: ADME, organism-based, Kidney; details: in vivo
# [7] = test system: Mus musculus; assay: Tested for biodistribution of radioactivity after 24 hr of intravenous injection in mice spleen; type: ADME, organism-based; details: in vivo
# [8] = test system: Mus musculus; assay: Tested for biodistribution of radioactivity after 3h of intravenous injection in mice neck; type: ADME, organism-based; details: in vivo
# [9] = test system: Mus musculus; assay: Tested for biodistribution of radioactivity after 5 min of intravenous injection in mice neck; type: ADME, organism-based; details: in vivo
# [10] = test system: Mus musculus; assay: Tested for biodistribution of radioactivity after 24 hr of intravenous injection in mice blood; type: ADME, organism-based; details: in vivo
# [11] = test system: Mus musculus; assay: Tested for biodistribution of radioactivity after 1 hr of intravenous injection in mice liver; type: ADME, organism-based; details: in vivo
# [12] = test system: Mus musculus; assay: Tested for biodistribution of radioactivity after 24 hr of intravenous injection in mice kidneys; type: ADME, organism-based, Kidney; details: in vivo
# [13] = test system: Mus musculus; assay: Tested for biodistribution of radioactivity after 30 min of intravenous injection in mice liver; type: ADME, organism-based; details: in vivo, 0.5 h
# [14] = test system: Mus musculus; assay: Tested for biodistribution of radioactivity after 6 hr of intravenous injection in mice blood; type: ADME, organism-based; details: in vivo
# [15] = test system: Mus musculus; assay: Tested for biodistribution of radioactivity after 6 hr of intravenous injection in mice feces; type: ADME, organism-based; details: in vivo
# [16] = test system: Mus musculus; assay: Tested for biodistribution of radioactivity after 3h of intravenous injection in mice spleen; type: ADME, organism-based; details: in vivo
# [17] = test system: Mus musculus; assay: Tested for biodistribution of radioactivity after 5 min of intravenous injection in mice kidneys; type: ADME, organism-based; details: in vivo
# [18] = test system: Mus musculus; assay: Tested for biodistribution of radioactivity after 6 hr of intravenous injection in mice stomach; type: ADME, organism-based; details: in vivo
# [19] = test system: Mus musculus; assay: Tested for biodistribution of radioactivity after 5 min of intravenous injection in mice liver; type: ADME, organism-based; details: in vivo
# [20] = test system: Mus musculus; assay: Tested for biodistribution of radioactivity after 6 hr of intravenous injection in mice spleen; type: ADME, organism-based; details: in vivo
# [21] = test system: Mus musculus; assay: Tested for biodistribution of radioactivity after 24 hr of intravenous injection in mice urine; type: ADME, organism-based; details: in vivo
# [22] = test system: Mus musculus; assay: Tested for biodistribution of radioactivity after 1 hr of intravenous injection in mice kidneys; type: ADME, organism-based, Kidney; details: in vivo
# [23] = test system: Mus musculus; assay: Tested for biodistribution of radioactivity after 24 hr of intravenous injection in mice stomach; type: ADME, organism-based; details: in vivo
# [24] = test system: Mus musculus; assay: Tested for biodistribution of radioactivity after 3h of intravenous injection in mice blood; type: ADME, organism-based; details: in vivo
# [25] = test system: Mus musculus; assay: Tested for biodistribution of radioactivity after 3h of intravenous injection in mice liver; type: ADME, organism-based; details: in vivo
# [26] = test system: Mus musculus; assay: Tested for biodistribution of radioactivity after 24 hr of intravenous injection in mice intestines; type: ADME, organism-based, Intestine; details: in vivo
# [27] = test system: Mus musculus; assay: Tested for biodistribution of radioactivity after 3h of intravenous injection in mice stomach; type: ADME, organism-based; details: in vivo
# [28] = test system: Mus musculus; assay: Tested for biodistribution of radioactivity after 24 hr of intravenous injection in mice feces; type: ADME, organism-based; details: in vivo
# [29] = test system: Mus musculus; assay: Tested for biodistribution of radioactivity after 3h of intravenous injection in mice intestines; type: ADME, organism-based, Intestine; details: in vivo
# [30] = test system: Mus musculus; assay: Tested for biodistribution of radioactivity after 30 min of intravenous injection in mice lintestines; type: ADME, organism-based, Intestine; details: in vivo, 0.5 h
# [31] = test system: Mus musculus; assay: Tested for biodistribution of radioactivity after 6 hr of intravenous injection in mice kidneys; type: ADME, organism-based, Kidney; details: in vivo
# [32] = test system: Mus musculus; assay: Tested for biodistribution of radioactivity after 5 min of intravenous injection in mice spleen; type: ADME, organism-based; details: in vivo
# [33] = test system: Mus musculus; assay: Tested for biodistribution of radioactivity after 30 min of intravenous injection in mice kidneys; type: ADME, organism-based; details: in vivo, 0.5 h
# [34] = test system: Mus musculus; assay: Tested for biodistribution of radioactivity after 1 hr of intravenous injection in mice intestines; type: ADME, organism-based, Intestine; details: in vivo
# [35] = test system: Mus musculus; assay: Tested for biodistribution of radioactivity after 6 hr of intravenous injection in mice neck; type: ADME, organism-based; details: in vivo
# [36] = test system: Mus musculus; assay: Tested for biodistribution of radioactivity after 6 hr of intravenous injection in mice liver; type: ADME, organism-based; details: in vivo
# [37] = test system: Mus musculus; assay: Tested for biodistribution of radioactivity after 1 hr of intravenous injection in mice spleen; type: ADME, organism-based; details: in vivo
# [38] = test system: Mus musculus; assay: Tested for biodistribution of radioactivity after 1 hr of intravenous injection in mice neck; type: ADME, organism-based; details: in vivo
# [39] = test system: Mus musculus; assay: Tested for biodistribution of radioactivity after 30 min of intravenous injection in mice stomach; type: ADME, organism-based; details: in vivo, 0.5 h
# [40] = test system: Mus musculus; assay: Tested for biodistribution of radioactivity after 24 hr of intravenous injection in mice neck; type: ADME, organism-based; details: in vivo
# [41] = test system: Mus musculus; assay: Tested for biodistribution of radioactivity after 1 hr of intravenous injection in mice blood; type: ADME, organism-based; details: in vivo
# [42] = test system: Mus musculus; assay: Tested for biodistribution of radioactivity after 6 hr of intravenous injection in mice intestines; type: ADME, organism-based, Intestine; details: in vivo
# [43] = test system: Mus musculus; assay: Tested for biodistribution of radioactivity after 30 min of intravenous injection in mice spleen; type: ADME, organism-based; details: in vivo, 0.5 h
# [44] = test system: Mus musculus; assay: Tested for biodistribution of radioactivity after 30 min of intravenous injection in mice blood; type: ADME, organism-based; details: in vivo, 0.5 h
# [45] = test system: Mus musculus; assay: Tested for biodistribution of radioactivity after 24 hr of intravenous injection in mice liver; type: ADME, organism-based; details: in vivo
# [46] = test system: Mus musculus; assay: Tested for biodistribution of radioactivity after 5 min of intravenous injection in mice blood; type: ADME, organism-based; details: in vivo
compound,measurement,setting,value
CN[C@@H](CSC1CC(=O)N(CCOC(=O)CNC(=O)c2cccc(I)c2)C1=O)C(=O)O (stereo partly drawn),Dose/organ,[1],0.18%
same,Dose/organ,[2],0.28%
same,Dose/organ,[3],0.56%
same,Dose/organ,[4],0.11%
same,Dose/organ,[5],78.35%
same,Dose/organ,[6],0.14%
same,Dose/organ,[7],0.04%
same,Dose/organ,[8],0.02%
same,Dose/organ,[9],0.07%
same,Dose/g,[10],0.02%
same,Dose/organ,[11],3.98%
same,Dose/organ,[12],0.02%
same,Dose/organ,[13],12.28%
same,Dose/g,[14],0.03%
same,Dose/organ,[15],2.3%
same,Dose/organ,[16],0.07%
same,Dose/organ,[17],0.65%
same,Dose/organ,[18],0.45%
same,Dose/organ,[19],92.56%
same,Dose/organ,[20],0.07%
same,Dose/organ,[21],90.6%
same,Dose/organ,[22],2.79%
same,Dose/organ,[23],0.05%
same,Dose/g,[24],0.09%
same,Dose/organ,[25],1.56%
same,Dose/organ,[26],0.05%
same,Dose/organ,[27],0.52%
same,Dose/organ,[28],3.52%
same,Dose/organ,[29],2.54%
same,Dose/organ,[30],9.99%
same,Dose/organ,[31],0.06%
same,Dose/organ,[32],0.21%
same,Dose/organ,[33],5.34%
same,Dose/organ,[34],6.11%
same,Dose/organ,[35],0.02%
same,Dose/organ,[36],0.58%
same,Dose/organ,[37],0.1%
same,Dose/organ,[38],0.06%
same,Dose/organ,[39],0.59%
same,Dose/organ,[40],0.01%
same,Dose/g,[41],0.24%
same,Dose/organ,[42],0.84%
same,Dose/organ,[43],0.12%
same,Dose/g,[44],1.01%
same,Dose/organ,[45],0.27%
same,Dose/g,[46],0.45%
CN[C@@H](CCCCN)C(=O)NC(=O)c1cccc(I)c1,Dose/organ,[1],0.16%
same,Dose/organ,[2],0.41%
same,Dose/organ,[3],0.43%
same,Dose/organ,[4],0.14%
same,Dose/organ,[5],63.2%
same,Dose/organ,[6],0.7%
same,Dose/organ,[7],0.02%
same,Dose/organ,[8],0.02%
same,Dose/organ,[9],0.16%
same,Dose/organ,[10],0.01%
same,Dose/organ,[11],6.96%
same,Dose/organ,[12],0.02%
same,Dose/organ,[13],21.18%
same,Dose/g,[14],0.04%
same,Dose/organ,[15],1.53%
same,Dose/organ,[16],0.01%
same,Dose/organ,[17],0.8%
same,Dose/organ,[18],0.32%
same,Dose/organ,[19],92.86%
same,Dose/organ,[20],0.02%
same,Dose/organ,[21],83.9%
same,Dose/organ,[22],1.71%
same,Dose/organ,[23],0.04%
same,Dose/g,[24],0.11%
same,Dose/organ,[25],4.18%
same,Dose/organ,[26],0.07%
same,Dose/organ,[27],0.36%
same,Dose/organ,[28],3.26%
same,Dose/organ,[29],6.42%
same,Dose/organ,[30],9.45%
same,Dose/organ,[31],0.31%
same,Dose/organ,[32],0.02%
same,Dose/organ,[33],6.42%
same,Dose/organ,[34],10.73%
same,Dose/organ,[35],0.01%
same,Dose/organ,[36],2.82%
same,Dose/organ,[37],0.09%
same,Dose/organ,[38],0.03%
same,Dose/organ,[39],0.65%
same,Dose/organ,[40],0.01%
same,Dose/g,[41],0.28%
same,Dose/organ,[42],1.83%
same,Dose/organ,[43],0.07%
same,Dose/g,[44],1.16%
same,Dose/organ,[45],0.18%
same,Dose/g,[46],0.95%
CCc1ccc(O)c(I)c1,Dose/organ,[1],0.25%
same,Dose/organ,[2],0.16%
same,Dose/organ,[3],25.55%
same,Dose/organ,[4],0.7%
same,Dose/organ,[5],26.84%
same,Dose/organ,[6],0.83%
same,Dose/organ,[7],0.02%
same,Dose/organ,[8],0.25%
same,Dose/organ,[9],0.04%
same,Dose/g,[10],0.12%
same,Dose/organ,[11],3.68%
same,Dose/organ,[12],0.04%
same,Dose/organ,[13],18.72%
same,Dose/g,[14],1.59%
same,Dose/organ,[15],0.31%
same,Dose/organ,[16],0.1%
same,Dose/organ,[17],0.01%
same,Dose/organ,[18],13.22%
same,Dose/organ,[19],92.49%
same,Dose/organ,[20],0.06%
same,Dose/organ,[21],79.66%
same,Dose/organ,[22],1.73%
same,Dose/organ,[23],0.11%
same,Dose/g,[24],1.4%
same,Dose/organ,[25],1.44%
same,Dose/organ,[26],0.21%
same,Dose/organ,[27],17.5%
same,Dose/organ,[28],3.22%
same,Dose/organ,[29],3.43%
same,Dose/organ,[30],8.28%
same,Dose/organ,[31],0.57%
same,Dose/organ,[32],0.06%
same,Dose/organ,[33],2.07%
same,Dose/organ,[34],6.73%
same,Dose/organ,[35],0.21%
same,Dose/organ,[36],1.13%
same,Dose/organ,[37],0.23%
same,Dose/organ,[38],0.34%
same,Dose/organ,[39],15.65%
same,Dose/organ,[40],0.01%
same,Dose/g,[41],5.14%
same,Dose/organ,[42],3.06%
same,Dose/organ,[43],0.3%
same,Dose/g,[44],5.35%
same,Dose/organ,[45],0.37%
same,Dose/g,[46],0.15%
